Measurements reported in patent US20250268959A1, “COMPOSITIONS CONTAINING INDOLE-DERIVED METABOLITES AND METHODS OF USE THEREOF” (Imvela Corp., priority 2024, published 2025).
Like-named read-outs stand apart in the source and are kept apart here.

Legend:
AhR [1] = target: T1, AhR (Homo sapiens, UniProt P35869); experiment: AhR activation, in vitro luminescence assay in human cell lines expressing AhR; type: cell-based; details: human cell line expressing AhR; 200 μM; normalized to methylcholanthrene (FIG. 5)
T1 sequence (P35869 11-848): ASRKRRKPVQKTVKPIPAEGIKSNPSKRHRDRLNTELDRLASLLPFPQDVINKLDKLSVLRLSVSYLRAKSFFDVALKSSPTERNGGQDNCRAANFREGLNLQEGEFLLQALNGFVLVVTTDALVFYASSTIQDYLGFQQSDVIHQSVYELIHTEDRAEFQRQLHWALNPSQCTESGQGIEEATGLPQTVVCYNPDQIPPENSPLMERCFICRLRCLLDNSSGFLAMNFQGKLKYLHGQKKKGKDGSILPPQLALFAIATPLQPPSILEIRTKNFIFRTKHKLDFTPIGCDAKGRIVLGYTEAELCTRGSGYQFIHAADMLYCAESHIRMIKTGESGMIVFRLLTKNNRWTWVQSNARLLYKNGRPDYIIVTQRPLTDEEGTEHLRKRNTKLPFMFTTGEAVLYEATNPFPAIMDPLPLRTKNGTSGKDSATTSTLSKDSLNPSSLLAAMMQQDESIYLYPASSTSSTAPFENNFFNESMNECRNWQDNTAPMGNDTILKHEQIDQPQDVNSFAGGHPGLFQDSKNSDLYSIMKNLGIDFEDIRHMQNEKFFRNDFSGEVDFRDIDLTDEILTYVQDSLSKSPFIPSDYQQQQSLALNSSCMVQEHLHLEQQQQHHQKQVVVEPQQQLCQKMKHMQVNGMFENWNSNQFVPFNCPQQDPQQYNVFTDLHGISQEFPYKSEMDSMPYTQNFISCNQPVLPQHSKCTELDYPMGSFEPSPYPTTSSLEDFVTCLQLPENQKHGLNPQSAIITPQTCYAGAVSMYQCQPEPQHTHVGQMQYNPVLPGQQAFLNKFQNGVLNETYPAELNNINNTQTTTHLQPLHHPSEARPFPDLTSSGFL
Method: (§1) The utility of ILA and IAld in multiple host was validated by an in vitro assay. Human or canine cell lines expressing AhR were exposed to ILA or IAld at 200 μM, and AhR activation was assayed using in vitro luminescence.

AhR [2] = target: T2, AhR (Canis lupus familiaris, UniProt A0A8I3RSX6); experiment: AhR activation, in vitro luminescence assay in canine cell lines expressing AhR; type: cell-based; details: canine cell line expressing AhR; 200 μM; normalized to methylcholanthrene (FIG. 5)
T2 sequence (A0A8I3RSX6 1-853): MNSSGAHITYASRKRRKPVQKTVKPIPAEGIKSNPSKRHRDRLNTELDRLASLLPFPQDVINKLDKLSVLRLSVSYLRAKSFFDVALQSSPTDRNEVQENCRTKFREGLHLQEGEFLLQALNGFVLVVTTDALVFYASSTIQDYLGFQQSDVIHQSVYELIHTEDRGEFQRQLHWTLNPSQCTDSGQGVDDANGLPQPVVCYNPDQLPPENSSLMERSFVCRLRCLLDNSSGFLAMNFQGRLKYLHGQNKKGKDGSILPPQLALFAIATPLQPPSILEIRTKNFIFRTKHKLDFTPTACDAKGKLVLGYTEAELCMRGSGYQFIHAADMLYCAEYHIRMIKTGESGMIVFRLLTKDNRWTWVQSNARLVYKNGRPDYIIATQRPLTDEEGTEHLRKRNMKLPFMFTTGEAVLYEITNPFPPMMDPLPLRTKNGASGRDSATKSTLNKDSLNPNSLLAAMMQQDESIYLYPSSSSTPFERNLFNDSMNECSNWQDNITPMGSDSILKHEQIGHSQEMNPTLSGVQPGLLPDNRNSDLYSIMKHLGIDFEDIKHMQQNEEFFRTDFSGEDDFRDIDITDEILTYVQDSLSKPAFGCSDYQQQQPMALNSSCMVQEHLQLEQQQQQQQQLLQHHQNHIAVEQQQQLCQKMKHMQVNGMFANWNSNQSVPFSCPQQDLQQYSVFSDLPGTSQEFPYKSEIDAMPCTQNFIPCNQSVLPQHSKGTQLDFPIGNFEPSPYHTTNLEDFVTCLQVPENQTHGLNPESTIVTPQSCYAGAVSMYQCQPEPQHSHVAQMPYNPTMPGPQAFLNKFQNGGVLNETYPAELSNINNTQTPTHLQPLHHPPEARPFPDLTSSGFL
Method: as §1

[3] = mice; IPA supplementation; in 2 weeks; cited from earlier work
[4] = rats; IPA supplementation; over 1 week; cited from earlier work

O=Cc1c[nH]c2ccccc12 [IAld, indole-3-carboxaldehyde]
AhR activation (AhR [1]): AhR activation was observed
AhR activation (AhR [2]): AhR activation was observed

O=C(O)C(O)Cc1c[nH]c2ccccc12 (stereo not drawn) [ILA, indole-3-lactic acid]
AhR activation (AhR [1]): AhR activation was observed
AhR activation (AhR [2]): AhR activation was observed

O=C(O)CCc1c[nH]c2ccccc12 [IPA, indole-3-propionic acid]
reduction of weight gain [3]: ~60%
reduction of weight gain [4]: ~50%
